From the supplement of paper PMC10733146

Tests used:
Test in all cases: viability relative to DMSO control (fraction); higher = less drug effect (more viable cells)
Details in all cases: 48 h
[1] = test system: primary T-PLL patient cells (S008)
Summary of the method: (§1)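 In 384-well plates with compounds pre-plated at five concentrations (one well per concentration), primary mononuclear tumour cells were plated at 4 × 10^4 cells per well. The cells came from blood or bone marrow by Ficoll isolation or from processed lymph node, and were used fresh or cryopreserved. Culture ran for 48 h at 37 °C and 5% CO2 in RPMI-1640 containing penicillin/streptomycin, L-glutamine and human serum. Viability was read as CellTiter-Glo luminescence, normalised to the median of 16 inner DMSO wells.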

[2] = test system: primary AML patient cells (S055)
Summary of the method: as §1

[3] = test system: primary AML patient cells (S091)
Summary of the method: as §1

[4] = test system: primary AML patient cells (S019)
Summary of the method: as §1

[5] = test system: primary MCL patient cells (S041)
Summary of the method: as §1

[6] = test system: primary DLBCL patient cells (S082)
Summary of the method: as §1

[7] = test system: primary AML patient cells (S037)
Summary of the method: as §1

[8] = test system: primary AML patient cells (S002)
Summary of the method: as §1

[9] = test system: primary AML patient cells (S025)
Summary of the method: as §1

[10] = test system: primary AML patient cells (S071)
Summary of the method: as §1

[11] = test system: primary AML patient cells (S089)
Summary of the method: as §1

[12] = test system: primary AML patient cells (S009)
Summary of the method: as §1

[13] = test system: primary AML patient cells (S072)
Summary of the method: as §1

[14] = test system: primary AML patient cells (S079)
Summary of the method: as §1

## N#Cc1ccnc(N2C(=O)CC[C@H]2C(=O)N(c2cncc(F)c2)[C@H](C(=O)NC2CC(F)(F)C2)c2ccccc2Cl)c1 [AG-120]
[1]; 0.024 µM
  viability: 1.04
[1]; 0.12 µM
  viability: 1.09
[1]; 0.6 µM
  viability: 1.03
[1]; 3 µM
  viability: 1.04
[1]; 15 µM
  viability: 1.02
[2]; 0.024 µM
  viability: 1.11
[2]; 0.12 µM
  viability: 1.13
[2]; 0.6 µM
  viability: 1.01
[2]; 3 µM
  viability: 1.09
[2]; 15 µM
  viability: 0.964
[3]; 0.024 µM
  viability: 1.02
[3]; 0.12 µM
  viability: 0.975
[3]; 0.6 µM
  viability: 1.03
[3]; 3 µM
  viability: 1.56
[3]; 15 µM
  viability: 1.03
[4]; 0.024 µM
  viability: 1.43
[4]; 0.12 µM
  viability: 1.43
[4]; 0.6 µM
  viability: 0.934
[4]; 3 µM
  viability: 1.34
[4]; 15 µM
  viability: 0.833
[5]; 0.024 µM
  viability: 0.99
[5]; 0.12 µM
  viability: 1.01
[5]; 0.6 µM
  viability: 0.928
[5]; 3 µM
  viability: 1
[5]; 15 µM
  viability: 0.886
[6]; 0.024 µM
  viability: 1.03
[6]; 0.12 µM
  viability: 1.06
[6]; 0.6 µM
  viability: 0.895
[6]; 3 µM
  viability: 1.05
[6]; 15 µM
  viability: 0.935
[7]; 0.024 µM
  viability: 1.04
[7]; 0.12 µM
  viability: 1.04
[7]; 0.6 µM
  viability: 0.952
[7]; 3 µM
  viability: 1.01
[7]; 15 µM
  viability: 0.888
[8]; 0.024 µM
  viability: 0.901
[8]; 0.12 µM
  viability: 0.897
[8]; 0.6 µM
  viability: 0.849
[8]; 3 µM
  viability: 0.951
[8]; 15 µM
  viability: 0.766
[9]; 0.024 µM
  viability: 1.04
[9]; 0.12 µM
  viability: 1.06
[9]; 0.6 µM
  viability: 0.85
[9]; 3 µM
  viability: 0.934
[9]; 15 µM
  viability: 0.826
[10]; 0.024 µM
  viability: 1.03
[10]; 0.12 µM
  viability: 1.05
[10]; 0.6 µM
  viability: 0.922
[10]; 3 µM
  viability: 0.919
[10]; 15 µM
  viability: 0.751
[11]; 0.024 µM
  viability: 0.664
[11]; 0.12 µM
  viability: 0.916
[11]; 0.6 µM
  viability: 0.818
[11]; 3 µM
  viability: 0.903
[11]; 15 µM
  viability: 0.827
[12]; 0.024 µM
  viability: 0.974
[12]; 0.12 µM
  viability: 0.96
[12]; 0.6 µM
  viability: 1.04
[12]; 3 µM
  viability: 0.943
[12]; 15 µM
  viability: 0.915
[13]; 0.024 µM
  viability: 0.983
[13]; 0.12 µM
  viability: 1.1
[13]; 0.6 µM
  viability: 0.87
[13]; 3 µM
  viability: 0.919
[13]; 15 µM
  viability: 0.799
[14]; 0.024 µM
  viability: 0.978
[14]; 0.12 µM
  viability: 0.983
[14]; 0.6 µM
  viability: 0.879
[14]; 3 µM
  viability: 0.959
[14]; 15 µM
  viability: 0.844

## O=C(Nc1cccc(C(F)(F)F)c1)Nc1cc(S(=O)(=O)NC2CC2)ccc1-c1ccsc1 [AGI-6780]
[1]; 0.024 µM
  viability: 0.865
[1]; 0.12 µM
  viability: 0.979
[1]; 0.6 µM
  viability: 0.937
[1]; 3 µM
  viability: 0.863
[1]; 15 µM
  viability: 0.825
[2]; 0.024 µM
  viability: 0.912
[2]; 0.12 µM
  viability: 0.919
[2]; 0.6 µM
  viability: 0.874
[2]; 3 µM
  viability: 0.859
[2]; 15 µM
  viability: 0.85
[3]; 0.024 µM
  viability: 1.02
[3]; 0.12 µM
  viability: 1.05
[3]; 0.6 µM
  viability: 0.975
[3]; 3 µM
  viability: 0.989
[3]; 15 µM
  viability: 0.924
[4]; 0.024 µM
  viability: 1.17
[4]; 0.12 µM
  viability: 1.26
[4]; 0.6 µM
  viability: 1.27
[4]; 3 µM
  viability: 1.13
[4]; 15 µM
  viability: 1.18
[5]; 0.024 µM
  viability: 0.913
[5]; 0.12 µM
  viability: 0.898
[5]; 0.6 µM
  viability: 0.856
[5]; 3 µM
  viability: 0.868
[5]; 15 µM
  viability: 0.806
[6]; 0.024 µM
  viability: 0.796
[6]; 0.12 µM
  viability: 0.96
[6]; 0.6 µM
  viability: 0.91
[6]; 3 µM
  viability: 0.905
[6]; 15 µM
  viability: 0.983
[7]; 0.024 µM
  viability: 0.971
[7]; 0.12 µM
  viability: 1.02
[7]; 0.6 µM
  viability: 0.955
[7]; 3 µM
  viability: 0.877
[7]; 15 µM
  viability: 0.889
[8]; 0.024 µM
  viability: 0.785
[8]; 0.12 µM
  viability: 0.822
[8]; 0.6 µM
  viability: 0.816
[8]; 3 µM
  viability: 0.798
[8]; 15 µM
  viability: 0.689
[9]; 0.024 µM
  viability: 0.949
[9]; 0.12 µM
  viability: 1.06
[9]; 0.6 µM
  viability: 0.978
[9]; 3 µM
  viability: 0.905
[9]; 15 µM
  viability: 0.839
[10]; 0.024 µM
  viability: 0.803
[10]; 0.12 µM
  viability: 0.828
[10]; 0.6 µM
  viability: 0.826
[10]; 3 µM
  viability: 0.78
[10]; 15 µM
  viability: 0.607
[11]; 0.024 µM
  viability: 0.717
[11]; 0.12 µM
  viability: 0.925
[11]; 0.6 µM
  viability: 0.822
[11]; 3 µM
  viability: 0.84
[11]; 15 µM
  viability: 0.637
[12]; 0.024 µM
  viability: 0.807
[12]; 0.12 µM
  viability: 0.796
[12]; 0.6 µM
  viability: 0.875
[12]; 3 µM
  viability: 0.834
[12]; 15 µM
  viability: 0.749
[13]; 0.024 µM
  viability: 0.98
[13]; 0.12 µM
  viability: 0.904
[13]; 0.6 µM
  viability: 0.884
[13]; 3 µM
  viability: 0.764
[13]; 15 µM
  viability: 0.769
[14]; 0.024 µM
  viability: 0.935
[14]; 0.12 µM
  viability: 0.943
[14]; 0.6 µM
  viability: 0.925
[14]; 3 µM
  viability: 0.887
[14]; 15 µM
  viability: 0.802
